The text below walks through data of patent publication US20080021069A1, “Receptor Function Regulating Agent” (TAKEDA PHARMACEUTICAL COMPANY LIMITED, priority 2004, published 2008).

SMILES strings stand for the structures.

Usually melting point stands for the temperature, or range, at which the solid turns liquid.

`CCOc1ccc(-n2c(NCc3ccc(Cl)cc3)nc3ccc(Cl)cc32)cc1.Cl` [Example 68, N-(4-Chlorobenzyl)-6-chloro-1-(4-ethoxyphenyl)-1H-benzimidazol-2-amine hydrochloride] came in with a melting point of 173 to 175 °C.

`CCOc1ccc(-n2c(NCc3ccc(Br)cc3)nc3ccc(Cl)cc32)cc1.Cl` [Example 69, N-(4-Bromobenzyl)-6-chloro-1-(4-ethoxyphenyl)-1H-benzimidazol-2-amine hydrochloride] returned a melting point of 135 to 138 °C.

The molecule `CCOc1ccc(-n2c(NCc3ccc(C(C)(C)C)cc3)nc3ccc(Cl)cc32)cc1.Cl` [Example 70, N-(4-tert-Butylbenzyl)-6-chloro-1-(4-ethoxyphenyl)-1H-benzimidazol-2-amine hydrochloride] returned a melting point of 188 to 189 °C.

On to `CCCCOc1ccc(-n2c(NCc3ccc(Br)cc3)nc3ccc(Cl)cc32)cc1` [Example 77, N-(4-Bromobenzyl)-1-(4-butoxyphenyl)-6-chloro-1H-benzimidazol-2-amine], for which the melting point was in the range of 123 to 124 °C.

On to `FC(F)(F)COc1ccc(-n2c(NCc3ccc(Cl)cc3)nc3ccc(Cl)cc32)cc1` [Example 79, 6-Chloro-N-(4-chlorobenzyl)-1-[4-(2,2,2-trifluoroethoxy)phenyl]-1H-benzimidazol-2-amine], for which the melting point fell in the range of 150 to 151 °C.

Take `CCCOc1ccc(-n2c(NCc3ccc(Br)cc3)nc3cc(Cl)ccc32)cc1` [Example 84, N-(4-Bromobenzyl)-5-chloro-1-(4-propoxyphenyl)-1H-benzimidazol-2-amine]: the melting point lay within 112 to 113 °C.

With `CCCOc1ccc(-n2c(NCc3ccc(Cl)cc3)nc3cc(Cl)ccc32)cc1` [Example 85, 5-Chloro-N-(4-chlorobenzyl)-1-(4-propoxyphenyl)-1H-benzimidazol-2-amine], the melting point is 122 to 123 °C.

`CCCCOc1ccc(-n2c(NCc3ccc(Cl)cc3)nc3cc(Cl)ccc32)cc1` [Example 87, 1-(4-Butoxyphenyl)-5-chloro-N-(4-chlorobenzyl)-1H-benzimidazol-2-amine] showed a melting point of 100 to 101 °C.

`CCCCOc1ccc(-n2c(NCc3ccc(Br)cc3)nc3cc(Cl)ccc32)cc1` [Example 88, N-(4-Bromobenzyl)-1-(4-butoxyphenyl)-5-chloro-1H-benzimidazol-2-amine] showed a melting point of 95 to 96 °C.

Turning to `FC(F)(F)COc1ccc(-n2c(NCc3ccc(Br)cc3)nc3cc(Cl)ccc32)cc1` [Example 90, N-(4-Bromobenzyl)-5-chloro-1-[4-(2,2,2-trifluoroethoxy)phenyl]-1H-benzimidazol-2-amine], the melting point is 146 to 147 °C.

`FC(F)(F)COc1ccc(-n2c(NCc3ccc(Cl)cc3)nc3cc(Cl)ccc32)cc1` [Example 91, 5-Chloro-N-(4-chlorobenzyl)-1-[4-(2,2,2-trifluoroethoxy)phenyl]-1H-benzimidazol-2-amine] had a melting point of 138 to 139 °C.

Molecule `FC(F)(F)COc1ccc(-n2c(NCc3ccc(Cl)cc3)nc3cc(Cl)c(Cl)cc32)cc1` [Example 104, 5,6-Dichloro-N-(4-chlorobenzyl)-1-[4-(2,2,2-trifluoroethoxy)phenyl]-1H-benzimidazol-2-amine] showed a melting point of 138 to 139 °C.

`CCOC(=O)c1ccc2c(c1)nc(SCc1ccc(Cl)cc1)n2-c1ccc(OCC)cc1` [Example 107, Ethyl 2-[(4-chlorobenzyl)thio]-1-(4-ethoxyphenyl)-1H-benzimidazole-5-carboxylate] showed a melting point of 133 to 134 °C.

Regarding `CC(C)(C)OC(=O)Nc1ccc(-n2c(SCc3ccc(Cl)cc3)nc3ccc(Cl)cc32)cc1` [Example 114, tert-Butyl (4-{6-chloro-2-[(4-chlorobenzyl)thio]-1H-benzimidazol-1-yl}phenyl)carbamate], the melting point fell in the range of 163 to 164 °C.

Take `OCc1ccc(-n2c(SCc3ccc(Cl)cc3)nc3ccc(Cl)cc32)cc1` [Example 115, (4-{6-Chloro-2-[(4-chlorobenzyl)thio]-1H-benzimidazol-1-yl}phenyl)methanol]: the melting point was 121 to 122 °C.
